According to ChEMBL document CHEMBL5120754, “Structural modification aimed for improving solubility of lead compounds in early phase drug discovery” (Bioorg Med Chem, 2022):
Values after ≈ are worked out from the molar mass of the structure shown.

Key:
[1] = target: Prostaglandin E2 receptor EP1 subtype (Homo sapiens, UniProt P34995); experiment: Antagonist activity at EP1 receptor (unknown origin); format: functional
physchem = conditions: buffer
Heat shock protein HSP90 = Heat shock protein HSP90 (Homo sapiens, UniProt P07900+P08238); experiment: Inhibition of HSP90 (unknown origin); format: protein assay
HCT-116 = experiment: Antiproliferative activity against human HCT-116 cells; format: functional, cell-based
[2] = Permeability of compound in human Caco-2 cells; format: ADME, cell-based; conditions: read-out: permeability
[3] = target: Tyrosine-protein kinase ABL1 (Homo sapiens, UniProt P00519); experiment: Inhibition of Abl kinase (unknown origin)
Tyrosine-protein kinase ABL1, sequence (P00519 whole entry): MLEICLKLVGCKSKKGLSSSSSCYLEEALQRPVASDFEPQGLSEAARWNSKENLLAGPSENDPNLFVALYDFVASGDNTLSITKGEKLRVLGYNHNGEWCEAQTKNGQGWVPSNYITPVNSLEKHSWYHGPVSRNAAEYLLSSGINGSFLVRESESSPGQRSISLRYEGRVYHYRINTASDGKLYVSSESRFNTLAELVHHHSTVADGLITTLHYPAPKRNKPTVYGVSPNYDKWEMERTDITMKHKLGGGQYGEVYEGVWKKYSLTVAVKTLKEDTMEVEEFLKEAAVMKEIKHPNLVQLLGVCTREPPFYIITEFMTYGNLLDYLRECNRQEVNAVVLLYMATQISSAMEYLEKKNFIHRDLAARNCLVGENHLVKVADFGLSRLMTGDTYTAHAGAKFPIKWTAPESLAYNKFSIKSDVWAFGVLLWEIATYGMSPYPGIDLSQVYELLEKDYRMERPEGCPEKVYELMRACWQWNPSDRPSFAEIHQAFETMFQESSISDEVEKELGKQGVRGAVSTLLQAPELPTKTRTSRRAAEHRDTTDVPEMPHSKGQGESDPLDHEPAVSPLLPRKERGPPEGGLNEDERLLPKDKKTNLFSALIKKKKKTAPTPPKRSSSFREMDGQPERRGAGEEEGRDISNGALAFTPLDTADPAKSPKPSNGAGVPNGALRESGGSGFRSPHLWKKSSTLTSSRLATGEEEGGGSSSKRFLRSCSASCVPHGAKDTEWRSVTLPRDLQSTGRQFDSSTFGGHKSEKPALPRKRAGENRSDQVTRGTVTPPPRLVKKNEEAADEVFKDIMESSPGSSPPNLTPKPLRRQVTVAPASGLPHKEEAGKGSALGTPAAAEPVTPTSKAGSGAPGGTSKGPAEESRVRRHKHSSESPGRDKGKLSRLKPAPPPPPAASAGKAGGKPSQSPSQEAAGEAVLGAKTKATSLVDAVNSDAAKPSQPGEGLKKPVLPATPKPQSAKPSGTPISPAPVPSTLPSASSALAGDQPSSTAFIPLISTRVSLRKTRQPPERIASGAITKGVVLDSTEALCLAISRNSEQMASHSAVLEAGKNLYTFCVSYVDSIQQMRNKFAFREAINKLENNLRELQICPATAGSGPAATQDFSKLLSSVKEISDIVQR

[4] = target: Proto-oncogene tyrosine-protein kinase Src (Homo sapiens, UniProt P12931); experiment: Inhibition of Src (unknown origin)
Proto-oncogene tyrosine-protein kinase Src, sequence (P12931 2-536 limits assumed): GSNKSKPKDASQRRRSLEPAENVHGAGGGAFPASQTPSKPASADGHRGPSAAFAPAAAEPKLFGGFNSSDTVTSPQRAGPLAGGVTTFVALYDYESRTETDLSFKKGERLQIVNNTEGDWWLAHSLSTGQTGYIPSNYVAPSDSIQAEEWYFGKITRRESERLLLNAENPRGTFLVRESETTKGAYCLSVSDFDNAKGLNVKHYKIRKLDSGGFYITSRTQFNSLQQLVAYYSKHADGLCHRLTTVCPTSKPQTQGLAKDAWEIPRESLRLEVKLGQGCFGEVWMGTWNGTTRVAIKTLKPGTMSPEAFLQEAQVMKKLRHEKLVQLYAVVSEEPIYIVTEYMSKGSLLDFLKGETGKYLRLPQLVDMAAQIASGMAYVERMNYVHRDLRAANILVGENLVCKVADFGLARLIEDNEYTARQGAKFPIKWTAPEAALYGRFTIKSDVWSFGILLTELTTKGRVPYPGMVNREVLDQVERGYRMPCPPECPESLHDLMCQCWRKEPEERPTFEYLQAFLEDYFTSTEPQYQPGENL

NCI-N87 = experiment: cells; conditions: Homo sapiens, NCI-N87, 96 h
[5] = Inhibition of Integrin alpha-L (unknown origin)/Intercellular adhesion molecule 1 (unknown origin) interaction; set-up: species or system Homo sapiens
Plasmodium falciparum [6] = experiment: Antimalarial activity against Plasmodium falciparum 3D7; format: functional, organism-based
[7] = Antagonist activity at GlyN receptor (unknown origin); set-up: species or system Homo sapiens
MIA PaCa-2 = experiment: Antiproliferative activity against human MIA PaCa-2 cells; format: functional, cell-based
[8] = Inhibition of PI3K (unknown origin) activity; set-up: species or system Homo sapiens
[9] = target: Voltage-dependent T-type calcium channel subunit alpha-1I (Homo sapiens, UniProt Q9P0X4); experiment: Inhibition of Cav3.3 subunit 1alpha-l(unknown origin) stably transfected in HEK293 cells measured by FLIPR assay; format: cell-based
Voltage-dependent T-type calcium channel subunit alpha-1I, sequence (Q9P0X4 whole entry): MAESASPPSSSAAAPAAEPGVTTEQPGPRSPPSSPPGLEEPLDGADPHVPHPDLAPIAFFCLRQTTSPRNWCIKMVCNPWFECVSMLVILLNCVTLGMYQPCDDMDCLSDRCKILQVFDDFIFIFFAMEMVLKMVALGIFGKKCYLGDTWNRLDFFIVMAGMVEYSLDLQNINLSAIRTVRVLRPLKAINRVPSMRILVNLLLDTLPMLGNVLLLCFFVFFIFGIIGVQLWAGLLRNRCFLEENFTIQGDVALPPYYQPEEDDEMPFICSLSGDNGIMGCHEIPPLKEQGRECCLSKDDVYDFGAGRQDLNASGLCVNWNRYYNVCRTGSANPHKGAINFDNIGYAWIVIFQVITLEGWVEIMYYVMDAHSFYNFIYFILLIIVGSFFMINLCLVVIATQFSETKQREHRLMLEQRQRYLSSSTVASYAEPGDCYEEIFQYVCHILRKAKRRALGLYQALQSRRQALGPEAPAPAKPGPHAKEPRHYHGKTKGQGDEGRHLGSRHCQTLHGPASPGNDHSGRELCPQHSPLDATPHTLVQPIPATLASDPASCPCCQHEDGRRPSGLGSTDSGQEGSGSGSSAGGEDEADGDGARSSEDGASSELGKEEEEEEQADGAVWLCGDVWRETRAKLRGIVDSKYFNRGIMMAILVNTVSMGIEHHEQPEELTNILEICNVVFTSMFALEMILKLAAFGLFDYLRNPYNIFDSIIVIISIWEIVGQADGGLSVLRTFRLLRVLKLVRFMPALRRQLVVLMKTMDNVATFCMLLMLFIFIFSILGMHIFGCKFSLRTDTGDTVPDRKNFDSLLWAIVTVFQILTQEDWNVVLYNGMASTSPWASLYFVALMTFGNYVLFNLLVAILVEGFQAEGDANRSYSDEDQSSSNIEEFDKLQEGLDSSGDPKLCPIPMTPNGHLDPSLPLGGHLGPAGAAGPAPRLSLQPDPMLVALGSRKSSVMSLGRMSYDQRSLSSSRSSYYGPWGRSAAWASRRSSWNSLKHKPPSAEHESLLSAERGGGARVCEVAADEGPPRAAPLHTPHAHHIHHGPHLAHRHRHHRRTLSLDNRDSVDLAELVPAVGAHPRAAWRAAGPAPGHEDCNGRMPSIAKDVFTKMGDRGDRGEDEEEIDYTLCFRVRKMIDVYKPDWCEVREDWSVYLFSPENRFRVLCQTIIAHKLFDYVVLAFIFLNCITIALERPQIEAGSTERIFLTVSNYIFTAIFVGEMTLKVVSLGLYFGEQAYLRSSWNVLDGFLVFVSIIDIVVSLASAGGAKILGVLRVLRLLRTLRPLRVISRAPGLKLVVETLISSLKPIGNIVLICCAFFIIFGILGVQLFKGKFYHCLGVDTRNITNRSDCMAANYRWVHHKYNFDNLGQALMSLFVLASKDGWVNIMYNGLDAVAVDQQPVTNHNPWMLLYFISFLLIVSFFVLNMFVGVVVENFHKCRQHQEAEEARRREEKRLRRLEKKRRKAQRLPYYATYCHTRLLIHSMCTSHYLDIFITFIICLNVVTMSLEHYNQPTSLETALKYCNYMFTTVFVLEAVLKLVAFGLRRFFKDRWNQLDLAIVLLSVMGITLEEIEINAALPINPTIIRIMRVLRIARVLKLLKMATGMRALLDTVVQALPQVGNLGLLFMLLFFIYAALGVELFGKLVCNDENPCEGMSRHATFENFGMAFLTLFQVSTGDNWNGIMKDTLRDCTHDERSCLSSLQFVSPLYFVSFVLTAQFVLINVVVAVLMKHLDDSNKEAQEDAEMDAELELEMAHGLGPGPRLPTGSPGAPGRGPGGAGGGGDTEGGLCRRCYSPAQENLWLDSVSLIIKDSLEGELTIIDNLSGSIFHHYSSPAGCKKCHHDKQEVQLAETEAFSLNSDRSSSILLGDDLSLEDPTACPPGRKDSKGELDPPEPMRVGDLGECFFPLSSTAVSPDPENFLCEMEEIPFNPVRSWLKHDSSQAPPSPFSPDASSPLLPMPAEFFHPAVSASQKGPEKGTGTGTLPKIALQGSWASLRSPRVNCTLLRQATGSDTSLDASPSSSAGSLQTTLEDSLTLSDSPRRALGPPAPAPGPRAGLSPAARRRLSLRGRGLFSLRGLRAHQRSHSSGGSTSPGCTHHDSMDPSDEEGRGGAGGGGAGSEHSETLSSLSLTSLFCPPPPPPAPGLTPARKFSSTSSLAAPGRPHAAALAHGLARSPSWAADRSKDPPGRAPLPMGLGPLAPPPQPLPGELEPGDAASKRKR

[10] = Metabolic stability in human liver microsomes assessed as intrinsic clearance at 1 uM and measured by LC/MS-MS analysis; format: ADME, Microsome; conditions: read-out: CLH
[11] = target: Oxysterols receptor LXR-beta (Mus musculus, UniProt Q60644); experiment: Agonist activity at mouse LXRbeta
[12] = buffer
[13] = Inhibition of rabbit aortic ACAT; set-up: species or system Oryctolagus cuniculus
[14] = target: Retinoic acid receptor beta (Homo sapiens, UniProt P10826); experiment: Agonist activity at human RAR-beta2 receptor
Retinoic acid receptor beta, sequence (P10826 whole entry): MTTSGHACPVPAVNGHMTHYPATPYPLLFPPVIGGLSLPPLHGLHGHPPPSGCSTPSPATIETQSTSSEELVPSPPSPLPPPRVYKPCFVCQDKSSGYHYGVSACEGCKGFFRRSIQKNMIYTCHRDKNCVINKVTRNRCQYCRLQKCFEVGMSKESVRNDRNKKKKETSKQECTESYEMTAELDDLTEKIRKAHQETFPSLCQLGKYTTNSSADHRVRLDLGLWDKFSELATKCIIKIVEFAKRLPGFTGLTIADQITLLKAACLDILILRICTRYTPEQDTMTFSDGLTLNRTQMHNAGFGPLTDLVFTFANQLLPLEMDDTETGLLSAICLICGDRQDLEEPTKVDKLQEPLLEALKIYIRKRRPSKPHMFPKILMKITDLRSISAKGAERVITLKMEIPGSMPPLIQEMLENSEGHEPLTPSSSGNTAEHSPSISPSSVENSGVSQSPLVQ

Plasmodium falciparum [15] = experiment: Antimalarial activity against blood stage chloroquine-sensitive Plasmodium falciparum 3D7 infected in human red blood cells measured by [3H]hypoxanthine incorporation assay; format: functional, organism-based, RBC; conditions: 3D7, Erythrocyte
CDK2/Cyclin A2 = CDK2/Cyclin A2 (Homo sapiens, UniProt P24941); experiment: Inhibition of CDK2/Cyclin A (unknown origin); format: protein-complex assay

Prostaglandin E2 receptor EP1 subtype, sequence (P34995 whole entry): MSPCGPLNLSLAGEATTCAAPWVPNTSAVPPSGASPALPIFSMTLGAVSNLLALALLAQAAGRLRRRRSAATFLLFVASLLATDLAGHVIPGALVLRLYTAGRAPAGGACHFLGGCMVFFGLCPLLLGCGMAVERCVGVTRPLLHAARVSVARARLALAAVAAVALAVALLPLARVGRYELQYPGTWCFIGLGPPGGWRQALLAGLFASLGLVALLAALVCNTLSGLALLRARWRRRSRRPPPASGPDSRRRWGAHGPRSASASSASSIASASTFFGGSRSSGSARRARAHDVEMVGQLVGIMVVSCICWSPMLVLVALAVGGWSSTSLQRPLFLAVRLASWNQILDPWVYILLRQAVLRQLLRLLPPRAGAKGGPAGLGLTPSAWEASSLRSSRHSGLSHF

In the case of CCNCc1ccc(NC(=O)c2cc(C)n(Cc3cc(Cl)ccc3OCc3ccccc3)n2)cc1, the pIC50 [1] is reported as 7 and the solubility thermodynamic (physchem) is reported as 690 µg/mL.
In the case of CCc1cc(C(=O)N2Cc3ccccc3C2)c(O)cc1O, the Kd (Heat shock protein HSP90) is reported as 0.54 nM and the IC50 (HCT-116) is reported as 31 nM.
Clc1ccc(C(Cl)Cn2ncc3c(NCc4ccncc4)ncnc32)cc1 (centres undefined) showed a Papp [2] of 174 ×10⁻⁶ cm/s, an IC50 [3] of 56400 nM and an IC50 [4] of 56400 nM. For the same compound, the solubility thermodynamic (physchem) was 12.3 µg/mL.
CSc1nc(N)nc(-c2c(Cl)cc3c4c(cccc24)COC3)n1 showed a solubility thermodynamic (physchem) of 29 µM and an IC50 (NCI-N87) of 570 nM.
In the case of CC(=O)N1CCN(C(=O)/C=C/c2ccc(Sc3ccc4[nH]ccc4c3)c(Cl)c2)CC1, the IC50 [5] is reported as 20 nM and the solubility thermodynamic (physchem) is reported as 0.8 µg/mL.
With O=c1cc(-c2ccc(Cc3ccc(OC(F)(F)F)cc3)cc2)[nH]c2ccccc12 the IC50 (Plasmodium falciparum [6]) was 117 nM and the solubility thermodynamic (physchem) was 30 µM.
CC(=O)N1CCN(C(=O)/C=C/c2ccc(Sc3ccc4c(c3)OCCO4)c(Cl)c2)CC1 showed an IC50 [5] of 40 nM and a solubility thermodynamic (physchem) of 4.1 µg/mL.
With CN1CCc2c([N+](=O)[O-])cc3nc(O)c(O)nc3c2C1 the solubility thermodynamic (physchem) was 8.6 µg/mL and the IC50 [7] was 63 nM.
Compound CC1(C)C(N(O)C(=O)Nc2ccc(Cl)cc2)N(c2ccc(Cl)cc2)C(=O)N1CC(=O)N/N=C/C=C/c1ccc([N+](=O)[O-])o1 (centres undefined) has an EC50 (MIA PaCa-2) of 4100 nM and a solubility thermodynamic (physchem) of 0.032 µM.
For CCN1CCN(c2cc(F)c(NC(=O)N3CCc4c(-c5cnc(N)nc5)nc(N5CCOCC5)nc43)c(F)c2)CC1, the IC50 [8] was 0.022 µg/mL (≈ 0.0388 µM) and the solubility thermodynamic (physchem) was 20 µg/mL.
Work on C[C@@H]1CN(Cc2ccccc2)c2cnccc2[C@H](C)N1C(=O)NCc1ccccc1 yielded an IC50 [9] of 55 nM, a microsomal CLint at 1 µM [10] of 56 µL/min/mg and a solubility thermodynamic (physchem) of 27 µg/mL.
C[C@@H]1CN(Cc2ccccc2)c2ccccc2[C@H](C)N1C(=O)NCc1ccccc1 gave an IC50 [9] of 6 nM, a microsomal CLint at 1 µM [10] greater than 1250 µL/min/mg and a solubility thermodynamic (physchem) of 1 µg/mL.
With Cc1cc(C(=O)Nc2ccccc2)nn1Cc1cc(Cl)ccc1OCc1ccccc1 the pIC50 [1] was 7.4.
Fc1ccc(CNc2ncnc3c2cnn3CC(Cl)c2ccc(Cl)cc2)cc1 (centres undefined) gave a Papp [2] of 322 ×10⁻⁶ cm/s, an IC50 [3] of 8100 nM and an IC50 [4] of 8100 nM. It also gave a solubility thermodynamic (physchem) of 0.04 µg/mL.
With O=C1c2c(Cl)c(Cl)c(Cl)c(Cl)c2C(=O)N1c1ccccc1/C=C\c1ccccc1 the EC50 [11] was 300 nM and the solubility thermodynamic (physchem) was 0.0036 µg/mL.
For CC(C)c1cccc(C(C)C)c1NC(=O)CCCCCCCCSc1nc2ccccc2o1, the Therm_solubility [12] was 0.03 µg/mL and the IC50 [13] was 4 nM.
With CCCCCCCCc1ccc(-c2ccc(C(=O)O)cc2)cc1 the EC50 [14] was 6900 nM and the solubility thermodynamic (physchem) was 1 µg/mL.
Work on CC(C)c1cccc(C(C)C)c1NC(=O)CN1CCN(CCSc2nc3ccccc3o2)CC1 yielded an IC50 [13] of 84 nM and a solubility thermodynamic (physchem) of 19000 µg/mL.
Compound COc1ccc2c(=O)cc(-c3cnn(Cc4ccc(OC(F)(F)F)cc4)c3)[nH]c2c1 has an IC50 (Plasmodium falciparum [6]) of 33 nM and a solubility thermodynamic (physchem) of 0.3 µM.
CCCCOCCOc1nc(-c2ccc(C(=O)O)cc2)sc1C showed an EC50 [14] of 8000 nM and a solubility thermodynamic (physchem) of 4800 µg/mL.
Work on Cc1ccc(-c2cc(C(=O)Nc3cccnc3)c3cc(F)ccc3n2)cc1 yielded an EC50 (Plasmodium falciparum [15]) of 120 nM and a solubility thermodynamic (physchem) of 39 µM.
CCc1cc(C(=O)N2Cc3ccc(CN4CCN(C)CC4)cc3C2)c(O)cc1O gave a Kd (Heat shock protein HSP90) of 0.71 nM, an IC50 (HCT-116) of 48 nM and a solubility thermodynamic (physchem) of 30000 µg/mL.
Work on CC(C(=O)NC1=CC(C2CC2)=CC1)c1ccc(N2CCCC2=O)cc1 (centres undefined) yielded an IC50 (CDK2/Cyclin A2) of 37 nM and a solubility thermodynamic (physchem) of 250 µM.
With O=C(Cc1ccc2ccccc2c1)NC1=CC(C2CC2)=CC1 the IC50 (CDK2/Cyclin A2) was 37 nM and the solubility thermodynamic (physchem) was 22 µM.
